Experimental findings from patent publication US20080292619A1, “Pharmaceutical Composition Containing Meltrin Antagonist” (MOCHIDA PHARMACEUTICAL CO., LTD., priority 2004, published 2008) are described below.

In the oligonucleotide strings, read from the 5' end, every base follows the letter of its sugar. An asterisk marks phosphorothioate; unmarked linkages are phosphodiester. Other units and linkages are bracketed, terminal groups are in braces. A string of capitals states the bases alone. d = 2'-deoxy (DNA)

For the series, the system named is human meltrin α RNA. Nature of the series: Suppression of human meltrin α expression by antisense compound in RD cell (real time PCR). The class given is cell-based. Particulars: RD cell. In outline:
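RD cells transfected with heat-denatured antisense oligodeoxynucleotide plus Lipofectin in Opti-MEM for 4 h at 37° C, then cultured 18 h. Meltrin α RNA quantified by TaqMan RT-PCR against plasmid standard curve, GAPDH-corrected; suppression vs untreated cells, rated +/++/+++ for ≥30/50/70%.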
A general note: In qPCR the cycle at which signal appears reflects the starting amount.

“H135: aacattctgacactgcagca (AACATTCTGACACTGCAGCA; antisense; DNA, all phosphorothioate, methylation of C not given here)”: where the note is “corrected by GAPDH”, the “suppression rate of expression, 50 nM” value is given as “+ (“+” when the suppression rate was at least 30%)” and the “suppression rate of expression, 200 nM” value is “++ (“++” when the suppression rate was at least 50%)”. With “H144 + 10: gatctgcaggcagaggcttc (GATCTGCAGGCAGAGGCTTC; antisense; DNA, all phosphorothioate, methylation of C not given here)”, the “suppression rate of expression, 50 nM” value (corrected by GAPDH) was “+++ (“+++” when the suppression rate was at least 70%)”. For “H123: caggatggtcaccagaattc (CAGGATGGTCACCAGAATTC; antisense; DNA, all phosphorothioate, methylation of C not given here)”, the “suppression rate of expression, 200 nM” value (corrected by GAPDH) is on record as “+ (“+” when the suppression rate was at least 30%)”. As to “H139 + 16: gctaggtgcacgtggggccc (GCTAGGTGCACGTGGGGCCC; antisense; DNA, all phosphorothioate, methylation of C not given here)”, for the setting “corrected by GAPDH”, the “suppression rate of expression, 50 nM” value was “++ (“++” when the suppression rate was at least 50%)”. “H006: tttccccccgtgtgtgtgcg (TTTCCCCCCGTGTGTGTGCG; antisense; DNA, all phosphorothioate, methylation of C not given here)”: under “corrected by GAPDH”, the “suppression rate of expression, 50 nM” value is given as “++ (“++” when the suppression rate was at least 50%)” and the “suppression rate of expression, 200 nM” value is “++ (“++” when the suppression rate was at least 50%)”. Regarding “H150 + 5: ggcacttggtgtggatattg (dG*dG*dC*dA*dC*dT*dT*dG*dG*dT*dG*dT*dG*dG*dA*dT*dA*dT*dT*dG; antisense)”, under “corrected by GAPDH”, the “suppression rate of expression, 50 nM” value is “+ (“+” when the suppression rate was at least 30%)”. Regarding “H102: agcatctctcatctcgcatt (dA*dG*dC*dA*dT*dC*dT*dC*dT*dC*dA*dT*dC*dT*dC*dG*dC*dA*dT*dT; antisense)”, the “suppression rate of expression, 200 nM” value (corrected by GAPDH) is given as “+ (“+” when the suppression rate was at least 30%)”. As to “H034: acatgtccatggtagtaaca (ACATGTCCATGGTAGTAACA; antisense; DNA, all phosphorothioate, methylation of C not given here)”, the “suppression rate of expression, 200 nM” value (corrected by GAPDH) was “++ (“++” when the suppression rate was at least 50%)”. For “H139 + 15: ctaggtgcacgtggggcccg (CTAGGTGCACGTGGGGCCCG; antisense; DNA, all phosphorothioate, methylation of C not given here)”, under “corrected by GAPDH”, the “suppression rate of expression, 50 nM” value is “+++ (“+++” when the suppression rate was at least 70%)”. As to “H076-OMe2: chimeric antisense oligonucleotide CTTTCtccaggctggTCTCC, uppercase 2′-methoxy nucleotides, lowercase phosphorothioate nucleotides (CTTTCTCCAGGCTGGTCTCC; 2'-O-methyl at 1, 2, 3, 4, 5, 16, 17, 18, 19, 20, other sugars, backbone and T or U not given here; lowercase gap nucleotides phosphorothioate)”, the “suppression rate of expression, 200 nM” value (chimeric 2′-methoxy antisense oligonucleotides) is reported as “+++ (“+++” when the suppression rate was at least 70%)”. Consider “H173: agctgcatctggtaccataa (dA*dG*dC*dT*dG*dC*dA*dT*dC*dT*dG*dG*dT*dA*dC*dC*dA*dT*dA*dA; antisense)”, for which, for the setting “corrected by GAPDH”, the “suppression rate of expression, 50 nM” value is “++ (“++” when the suppression rate was at least 50%)” and the “suppression rate of expression, 200 nM” value is given as “+++ (“+++” when the suppression rate was at least 70%)”.

In the case of “H161: tacctgtgcaagtagacaga (dT*dA*dC*dC*dT*dG*dT*dG*dC*dA*dA*dG*dT*dA*dG*dA*dC*dA*dG*dA; antisense)”, the “suppression rate of expression, 200 nM” value (corrected by GAPDH) was “++ (“++” when the suppression rate was at least 50%)”.

“H019: ggcgcgagcagagcaccggc (GGCGCGAGCAGAGCACCGGC; antisense; DNA, all phosphorothioate, methylation of C not given here)”: the “suppression rate of expression, 200 nM” value (corrected by GAPDH) is reported as “++ (“++” when the suppression rate was at least 50%)”. As for “H144 + 16: ccagaggatctgcaggcaga (CCAGAGGATCTGCAGGCAGA; antisense; DNA, all phosphorothioate, methylation of C not given here)”, the “suppression rate of expression, 50 nM” value (corrected by GAPDH) was “++ (“++” when the suppression rate was at least 50%)”. With “H178: ctccctgaaagccaaacaca (dC*dT*dC*dC*dC*dT*dG*dA*dA*dA*dG*dC*dC*dA*dA*dA*dC*dA*dC*dA; antisense)”, for the setting “corrected by GAPDH”, the “suppression rate of expression, 200 nM” value was “+ (“+” when the suppression rate was at least 30%)”.

With “H144 + 7: ctgcaggcagaggcttctga (CTGCAGGCAGAGGCTTCTGA; antisense; DNA, all phosphorothioate, methylation of C not given here)”, for the setting “corrected by GAPDH”, the “suppression rate of expression, 50 nM” value is recorded as “++ (“++” when the suppression rate was at least 50%)”. For “H195: tgcctgggcagtaggtttct (dT*dG*dC*dC*dT*dG*dG*dG*dC*dA*dG*dT*dA*dG*dG*dT*dT*dT*dC*dT; antisense)”, the “suppression rate of expression, 200 nM” value (corrected by GAPDH) is on record as “++ (“++” when the suppression rate was at least 50%)”. As for “H043: gtgttgtgatgtgatccaca (GTGTTGTGATGTGATCCACA; antisense; DNA, all phosphorothioate, methylation of C not given here)”, the “suppression rate of expression, 200 nM” value (corrected by GAPDH) is given as “+ (“+” when the suppression rate was at least 30%)”. As for “H145 + 3: gttctggccagaggatctgc (dG*dT*dT*dC*dT*dG*dG*dC*dC*dA*dG*dA*dG*dG*dA*dT*dC*dT*dG*dC; antisense)”, the “suppression rate of expression, 50 nM” value (corrected by GAPDH) was “++ (“++” when the suppression rate was at least 50%)”.

With “H009: agccctcgcgcacggcccgc (AGCCCTCGCGCACGGCCCGC; antisense; DNA, all phosphorothioate, methylation of C not given here)”, under “corrected by GAPDH”, the “suppression rate of expression, 50 nM” value is reported as “+ (“+” when the suppression rate was at least 30%)” and the “suppression rate of expression, 200 nM” value is “+++ (“+++” when the suppression rate was at least 70%)”. In the case of “H155: tccaactggagctgaaagat (dT*dC*dC*dA*dA*dC*dT*dG*dG*dA*dG*dC*dT*dG*dA*dA*dA*dG*dA*dT; antisense)”, the “suppression rate of expression, 200 nM” value (corrected by GAPDH) is “++ (“++” when the suppression rate was at least 50%)”. Take “H136 + 18: tgagggacattcaggccgtt (TGAGGGACATTCAGGCCGTT; antisense; DNA, all phosphorothioate, methylation of C not given here)”: the “suppression rate of expression, 50 nM” value (corrected by GAPDH) is “++ (“++” when the suppression rate was at least 50%)”. Turning to “H230: taggaaaactgttgacccca (dT*dA*dG*dG*dA*dA*dA*dA*dC*dT*dG*dT*dT*dG*dA*dC*dC*dC*dC*dA; antisense)”, where the note is “corrected by GAPDH”, the “suppression rate of expression, 200 nM” value is listed as “++ (“++” when the suppression rate was at least 50%)”.
